ChEMBL document CHEMBL5375996, “Discovery of Orally Available and Brain Penetrant AEP Inhibitors” (J Med Chem, 2023)

Legend:
in vitro = conditions: PAMPA
physchem = conditions: octanol/water

SMILES | Papp (in vitro) | logD (physchem)
N#C[C@H](CC(N)=O)NC(=O)[C@@H]1CCCN1C(=O)Cc1ccccc1 | 2.7 ×10⁻⁶ cm/s | –
N#C[C@H](CC(N)=O)NC(=O)[C@@H]1CCCN1C(=O)C1(c2ccc(F)cc2)CC1 | 2.9 ×10⁻⁶ cm/s | 0.5
NC(=O)CN(NC(=O)[C@@H]1CCCN1C(=O)C1(c2ccc(OC(F)(F)F)cc2)CC1)C(=O)CCl | – | 1.9
C#C[C@H](CC(N)=O)NC(=O)[C@@H]1C[C@@H](C)CN1C(=O)C1(c2ccc(OC(F)(F)F)cc2)CC1 | 2.8 ×10⁻⁶ cm/s | 2.2
C#C[C@H](CC(N)=O)NC(=O)[C@@H]1CCCN1C(=O)[C@]1(c2ccc(OC(F)(F)F)cc2)C[C@H](F)C1 | – | 1.7
C#C[C@H](CC(N)=O)NC(=O)[C@@H]1C[C@H](C)CN1C(=O)C1(c2ccc(OC(F)(F)F)cc2)CC1 | 1.5 ×10⁻⁶ cm/s | 2.3
C#C[C@H](CC(N)=O)NC(=O)[C@@H]1CCCN1C(=O)[C@]1(c2ccc(OC(F)(F)F)cc2)C[C@@H](F)C1 | – | 2.1
